Measured values published in the SangsterLogP compilation.

Key:
[1] = method code SF-AS, from DOI: 10.1248/cpb.39.1217
[2] = method code SF-HPLC, from DOI: 10.1021/jm701549s, PMID: 18558667; details: pH 7.4
[3] = method code SF-AS, from PMID: 6692390; details: pH 4.0
[4] = method code SF-RC, from DOI: 10.1002/jlcr.1525
[5] = method code SF-HPLC, from DOI: 10.1023/a:1007522626070, PMID: 10714611; details: pH 7.4
[6] = method code SF-AS, from DOI: 10.1002/jhrc.1240040906; details: pH 5.0
[7] = method code SF-GLC, from DOI: 10.1016/j.chemosphere.2004.08.061, PMID: 15519382
[8] = method code SF-HPLC, from DOI: 10.1002/ps.2780130506
[9] = method code SF-AS, from DOI: 10.1002/chin.198419165, PMID: 6653771; details: pH 2.5
[10] = method code SF-AS, from DOI: 10.1016/0378-5173(80)90117-9
[11] = method code SF-RC, from DOI: 10.1016/j.apradiso.2013.03.021, PMID: 23602704; details: pH 7.4
[12] = method code SF, from DOI: 10.1038/248065a0, PMID: 4150456; details: pH 9.0
[13] = not given; remark: listed apart in the source
[14] = method code SF-ESR, from DOI: 10.1111/1523-1747.ep12319780, PMID: 2551971; details: pH 7.0
[15] = method code SF-AS, from DOI: 10.1248/cpb.36.1393; details: pH 7.4
[16] = not given; remark: listed apart in the source
[17] = method code SF-AS, from DOI: 10.1002/jps.2600711105; details: pH 7.4
[18] = not given; remark: listed apart in the source
[19] = method code SF-HPLC, from DOI: 10.1016/0378-5173(85)90011-0
[20] = method code SF-GLC, from PMID: 6629728; details: pH 7.4
[21] = not given; remark: listed apart in the source
[22] = not given; remark: listed apart in the source
[23] = method code SF-AS, from DOI: 10.1016/0009-2797(77)90097-7, PMID: 407012; details: pH 7.0
[24] = method code SF, from DOI: 10.1002/jbm.820150603, PMID: 7309762
[25] = method code SF-HPLC, from DOI: 10.1248/bpb.16.154, PMID: 8364451
[26] = not given; remark: listed apart in the source
[27] = method code SF, from DOI: 10.1246/bcsj.60.4357
[28] = method code …, from Korenman, I.; Polumestnaya, I.; Mezentseva, P. (1979). Investigations of the relationship of extraction of 1-naphthol and some of its derivatives by the method of correlation equations. Zh. Prikl. …; details: pH 2.0
[29] = not given; remark: listed apart in the source
[30] = method code SF-AS, from DOI: 10.1021/jm00297a026, PMID: 5441130
[31] = method code SF-AS, from DOI: 10.1016/s0006-2952(02)01074-2, PMID: 12392818; details: pH 7.4
[32] = method code SF, from DOI: 10.1023/a:1018952108327, PMID: 7855051; details: pH 5.0
[33] = method code SF-AS, from DOI: 10.1016/0378-5173(82)90005-9; details: pH 3.0
[34] = method code SF, from DOI: 10.1002/jps.2600641111, PMID: 1195110; details: pH 7.4
[35] = not given; remark: listed apart in the source
[36] = method code SF-AS, from DOI: 10.1016/0005-2744(69)90103-x, PMID: 4387594
[37] = method code SF-RC, from Lázníček, M., Waisser, K., Květina, J., Beňo, P., & Tichý, M. (1985). QSAR methods in pharmacokinetic analysis. QSAR in Toxicology and Xenobiochemistry, 249-256.; details: pH 1.0
[38] = method code SF-RC,FL, from DOI: 10.1016/0006-2952(81)90006-x, PMID: 6456004
[39] = method code SF-GLC, from DOI: 10.1039/an9709500763, PMID: 5449617
[40] = method code SF-AS, from DOI: 10.1021/es00082a014; details: pH 7.0
[41] = method code SF-HPLC, from DOI: 10.1111/j.2042-7158.1995.tb05807.x, PMID: 7791035; details: pH 7.0
[42] = method code SF, from DOI: 10.1021/ac00105a018
[43] = method code SF-AS, from DOI: 10.1271/bbb1961.46.2755
[44] = not given; remark: listed apart in the source
[45] = method code SF, from DOI: 10.1021/jm00002a007, PMID: 7830268
[46] = method code SF-CR, from DOI: 10.1042/bj1780443, PMID: 109087; details: pH 7.4
[47] = method code SF-RC, from DOI: 10.1016/0006-2952(75)90159-8, PMID: 1168477
[48] = method code SF-AS, from DOI: 10.1016/s0378-5173(98)00405-0, PMID: 10089287; details: pH 7.4

Cc1nccnc1CC(C)C
logP [1]: 1.96

CN(C)C(=O)c1ccc(Br)cc1
logD [2]: 1.83

COc1ccc(NC(=O)N(C)N=O)cc1
logD [3]: 0.64

O=C(O)CN(CCN1CCN=C1[N+](=O)[O-])CC(=O)O
logP [4]: -0.82

CCn1nnc(C2=CCC[N+](C)([O-])C2)n1 (centres undefined)
logD [5]: -1.5

NC(=O)c1cnc2n(c1=O)CCCC2
logD [6]: -0.38

Cn1c(Cl)c(Br)c(Cl)c1-c1c(Br)c(Br)c(Cl)n1C
logP [7]: 6.5

CNC(=O)ON=Cc1ccc(Cl)c(Cl)c1
logP [8]: 2.89

O=C(O)c1ccccc1NCCO
logD [9]: 1.16

Cn1c(C(F)(F)F)nc2ccccc21
logP: 3.98

CCOc1ccc(O)cc1
logP [10]: 1.95

Nc1nc(=O)n([C@H]2C[C@H](O)[C@@H](CO)O2)cc1I
logD [11]: -0.94

CNC(=S)NCCSCc1c[nH]cn1
logD [12]: 0.16

COC(=O)Nc1nc2ccccc2[nH]1
logP [13]: 1.75

CC1(C)CCC(C)(C)N1[O]
logD [14]: 1

[O-][n+]1ccc(Cl)c2ccc(Cl)cc21
logD [15]: 1.85

ClC1=C(Cl)C2(Cl)C3C(Cl)C=CC3C1(Cl)C2(Cl)Cl (centres undefined)
logP [16]: 5.58

CC(=O)c1nc([N+](=O)[O-])n(CC(C)O)c1C (centres undefined)
logD [17]: 0.37

CCCCC1C(=O)NC(=O)N(C)C1=O (centres undefined)
logP [18]: 1.1

CCCC(=O)n1ncc2c(=O)[nH]cnc21
logP [19]: 0.85

C1CCC(C2CO2)CC1 (centres undefined)
logD [20]: 2.43

Cc1ncc(COP(=O)(O)O)c(C=O)c1O
logP [21]: 0.37

NC1CC1c1ccccc1 (centres undefined)
logP [22]: 1.49

CN(C)c1nc(N(C)C)nc(N(C)O)n1
logD [23]: 1.61

C=C(C)C(=O)OCCCC
logP [24]: 2.6

O=C(O)CNC(=O)c1cc(O)ccc1O
logP [25]: 0.28

Clc1ccc2ccccc2c1
logP [26]: 4.07

CC(C)c1cc([N+](=O)[O-])cc([N+](=O)[O-])c1O
logP [27]: 3.1

O=Nc1c(Br)cc2ccccc2c1O
logD [28]: 2.93

Clc1ccc2ccc(Cl)cc2c1
logP [29]: 4.81

CCCCn1cnc2c(N)ncnc21
logP [30]: 1.25

OC1CCOc2ccccc21 (centres undefined)
logD [31]: 1.31

CN1C(CCl)Nc2cc(Cl)c(S(N)(=O)=O)cc2S1(=O)=O (centres undefined)
logD [32]: 0.6

O=C1NC(=S)NC(=O)C12CCCCC2
logD [33]: 1.78

CC(=O)OCCn1c([N+](=O)[O-])cnc1C
logD [34]: 0.3

O=[N+]([O-])c1nccn1[C@@H]1O[C@H](CO)[C@@H](O)[C@H]1O
logP [35]: -1.15

CCCNc1ccccc1
logP [36]: 2.45

O=C(O)CCc1ccccc1I
logD [37]: 2.47

NCCc1ccc(O)c(O)c1
logP [38]: -0.97

COP(=O)(OC)Oc1ccc([N+](=O)[O-])cc1
logP [39]: 1.33

Cc1ccc(N)cc1C
logD [40]: 1.86

NC(=O)NC(=O)Cc1ccccc1
logD [41]: 0.66

CCCc1ccc(O)cc1
logP [42]: 3

O=C1COC(=O)N1c1ccccc1
logP [43]: 0.93

O=NN(CCF)C(=O)NC1CCS(=O)(=O)CC1
logP [44]: -0.41

CCOP(=O)(OCC)C1(C)CCC=[N+]1[O-] (centres undefined)
logP [45]: -1.22

CCc1ccc(O)cc1
logD [46]: 2.4

CCCN(C(C)=O)C(C)C
logP [47]: 1.48

Cc1cc(=O)n2ccccc2n1
logD [48]: 0.6
